Assay results from article PMC10096648, “A conserved hymenopteran-specific family of cytochrome P450s protects bee pollinators from toxic nectar alkaloids” (Science Advances, 2023).

Experiments:
CYP336A1 = molecular target: T1, CYP336A1 (Apis mellifera, UniProt A0A8U0WT43, D298G); experiment: fluorogenic model substrate assay, recombinant microsomes; assay type: biochemical; details: NADPH; activity present only in the mutant
T1 construct: gene LOC724211; codon-optimised; microsomes of baculovirus-infected High Five insect cells, coexpressed with A. mellifera NADPH-cytochrome P450 reductase
T1 sequence (A0A8U0WT43 entry or part of it D298G): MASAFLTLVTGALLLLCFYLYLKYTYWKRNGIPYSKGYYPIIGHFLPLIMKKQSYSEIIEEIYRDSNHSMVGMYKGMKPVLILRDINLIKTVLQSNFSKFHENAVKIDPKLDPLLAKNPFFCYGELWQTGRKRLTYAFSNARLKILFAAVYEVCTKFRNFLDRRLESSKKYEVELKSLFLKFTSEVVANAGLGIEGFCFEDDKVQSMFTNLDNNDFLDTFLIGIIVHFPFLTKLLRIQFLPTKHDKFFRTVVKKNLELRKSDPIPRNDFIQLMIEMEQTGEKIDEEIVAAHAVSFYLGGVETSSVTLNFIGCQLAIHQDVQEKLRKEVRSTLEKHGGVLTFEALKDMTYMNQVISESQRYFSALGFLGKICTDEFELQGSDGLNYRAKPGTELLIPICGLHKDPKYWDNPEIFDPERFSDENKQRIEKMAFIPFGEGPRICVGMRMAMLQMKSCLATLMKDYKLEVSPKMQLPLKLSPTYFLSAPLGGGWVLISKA

[1] = substrate: CN1CCC[C@H]1c1cccnc1; experiment: nicotine depletion by UPLC-MS/MS, recombinant microsomes; assay type: biochemical, Apis mellifera; details: NADPH regeneration system, pH 7.6, 30°C, 30 min, 0.78-100 μM nicotine

| Molecule | fluorogenic model substrate assay, recombinant microsomes (CYP336A1) | Km [1] [µM] |
| --- | --- | --- |
| O=c1cc(C(F)(F)F)c2ccc(OCc3ccccc3)cc2o1 [BFC, 7-benzyloxy-4-(trifluoromethyl)coumarin] | the D298G substitution leads to significant activity toward BFC | – |
| CYP336A1 (Apis mellifera) (protein, codon-optimised; microsomes of baculovirus-infected High Five insect cells, coexpressed with A. mellifera NADPH-cytochrome P450 reductase) MASAFLTLVTGALLLLCFYLYLKYTYWKRNGIPYSKGYYPIIGHFLPLIMKKQSYSEIIEEIYRDSNHSMVGMYKGMKPVLILRDINLIKTVLQSNFSKFHENAVKIDPKLDPLLAKNPFFCYGELWQTGRKRLTYAFSNARLKILFAAVYEVCTKFRNFLDRRLESSKKYEVELKSLFLKFTSEVVANAGLGIEGFCFEDDKVQSMFTNLDNNDFLDTFLIGIIVHFPFLTKLLRIQFLPTKHDKFFRTVVKKNLELRKSDPIPRNDFIQLMIEMEQTGEKIDEEIVAAHAVSFYLDGVETSSVTLNFIGCQLAIHQDVQEKLRKEVRSTLEKHGGVLTFEALKDMTYMNQVISESQRYFSALGFLGKICTDEFELQGSDGLNYRAKPGTELLIPICGLHKDPKYWDNPEIFDPERFSDENKQRIEKMAFIPFGEGPRICVGMRMAMLQMKSCLATLMKDYKLEVSPKMQLPLKLSPTYFLSAPLGGGWVLISKA | – | 12.77 |
